Data reported in patent publication US20050026189A1, “Microbial operons” (priority 2003, published 2005).

How the values were obtained:
[1] = tested on: E. coli transcribing antisense RNA to rplL and rplJ (AS-rplL/J); assay: microbe, parasite or virus in culture; type: cell-based; settings: for Fold Increase in Sensitivity: IC50 without IPTG versus IC50 with 400 μM IPTG; for Sensitivity Increased?: statistically significant decrease in the IC50 value in the presence of inducer (IPTG)
Method: The effectiveness of the above assays was validated using proliferation-required genes from E. coli which were identified using procedures similar to those described above. Antibiotics of various chemical classes and modes of action were purchased from Sigma Chemicals (St. Louis, Mo.). Stock solutions were prepared by dissolving each antibiotic in an appropriate aqueous solution based on information provided by the manufacturer. The final working solution of each antibiotic contained no more than 0.2% (w/v) of any organic solvent. To determine their potency against a bacterial strain engineered for transcription of an antisense comprising a nucleotide sequence complementary to a proliferation-required 50S ribosomal protein, each antibiotic was serially diluted two- or three-fold in growth medium supplemented with the appropriate antibiotic for maintenance of the antisense construct. At least ten dilutions were prepared for each antibiotic. 25 μL aliquots of each dilution were transferred to discrete wells of a 384-well microplate (the assay plate) using a multi-channel pipette. Quadruplicate wells were used for each dilution of an antibiotic under each treatment condition (plus and minus inducer). Each assay plate contained twenty wells for cell growth controls (growth medium replacing antibiotic), ten wells for each treatment (plus and minus inducer, in this example IPTG). Assay plates were usually divided into the two treatments: half the plate containing induced cells and an appropriate concentrations of inducer (in this example IPTG) to maintain the state of induction, the other half containing non-induced cells in the absence of IPTG.
Cells for the assay were prepared as follows. Bacterial cells containing a construct, from which transcription of antisense nucleic acid comprising a nucleotide sequence complementary to rplL and rplJ (AS-rplL/J), which encode proliferation-required 50S ribosomal subunit proteins, is inducible in the presence of IPTG, were grown into exponential growth (OD600 0.2 to 0.3) and then diluted 1:100 into fresh medium containing either 400 μM or 0 μM inducer (IPTG). These cultures were incubated at 37° C. for 2.5 hr. After a 2.5 hr incubation, induced and non-induced cells were respectively diluted into an assay medium at a final OD600 value of 0.0004. The medium contained an appropriate concentration of the antibiotic for the maintenance of the antisense construct. In addition, the medium used to dilute induced cells was supplemented with 800 μM IPTG so that addition to the assay plate would result in a final IPTG concentration of 400 μM. Induced and non-induced cell suspensions were dispensed (25 μl/well) into the appropriate wells of the assay plate as discussed previously. The plate was then loaded into a plate reader, incubated at constant temperature, and cell growth was monitored in each well by the measurement of light scattering at 595 nm. Growth was monitored every 5 minutes until the cell culture attained a stationary growth phase. For each concentration of antibiotic, a percentage inhibition of growth was calculated at the time point corresponding to mid-exponential growth for the associated control wells (no antibiotic, plus or minus IPTG). For each antibiotic and condition (plus or minus IPTG), a plot of percent inhibition versus log of antibiotic concentration was generated and the IC50 determined.

[2] = tested on: E. coli transcribing IPTG-inducible antisense clones; assay: Cell-based assay: antibiotic sensitivity of E. coli transcribing antisense to ribosomal protein genes or to genes not involved in protein synthesis (FIGS. 8, 9); parameters: species or system Escherichia coli
Source text: The effectiveness of the above cell-based assay was validated using constructs transcribing antisense RNA to the proliferation required Escherichia coli genes rplL, rplJ, and rplW encoding ribosomal proteins L7/L12, L10 and L23 respectively. These proteins are essential components of the protein synthesis apparatus of the cell and as such are required for proliferation. These constructs were used to test the effect of antisense transcription on cell sensitivity to antibiotics known to bind to the ribosome and thereby inhibit protein synthesis. Constructs transcribing antisense RNA to several other genes (elaD, visC, yohH, and atpE/B), the products of which are not involved in protein synthesis were used for comparison. […]
The cell populations containing vectors producing AS-elaD or AS-rplW were exposed to a range of IPTG concentrations in liquid medium to obtain the growth inhibitory dose curve for each clone (FIG. 7). First, seed cultures were grown to a particular turbidity measured by the optical density (OD) of the growth solution. […] The cells were grown for up to 15 hours and the extent of growth was determined by measuring the optical density of the cultures at 600 nm. […]

SMILES | Fold Increase in Sensitivity [1] [Fold] | Sensitivity Increased? [1] | sensitivity to antibiotics which do not inhibit protein synthesis ([2]; clone transcribing antisense to rplL and rplJ (AS-rplL/J)) | sensitivity to erythromycin ([2]; initial experiments, clones transcribing antisense to protein synthesis genes (L7/L12 & L10, L7/L12 alone, L22, L18, rRNA, Elongation Factor G))
CCn1cc(C(=O)O)c(=O)c2ccc(C)nc21 [Nalidixic acid] | 1 | No | does not show increased sensitivity | 
CC[C@H]1OC(=O)[C@H](C)[C@@H](O[C@H]2C[C@@](C)(OC)[C@@H](O)[C@H](C)O2)[C@H](C)[C@@H](O[C@@H]2O[C@H](C)C[C@H](N(C)C)[C@H]2O)[C@](C)(O)C[C@@H](C)C(=O)[C@H](C)[C@@H](O)[C@]1(C)O [Erythromycin] | 40 | Yes |  | increased sensitivity
